*1 amine or outer side, *2 acyl side, *3 side chain or, on linkers, in order; H or OH if unused. Where a SMILES comes first, the peptide text is derived from it. Bridges are numbered along the chain shown (N, C = ends). [ ]: non-standard residue; d: D form. NMeNva(5-imidazol-1-yl) = CN[C@@H](CCCn1ccnc1)C(=O)O; Phe(4-guanidino) = N=C(N)Nc1ccc(C[C@H](N)C(=O)O)cc1; X49 = O=C(O)Cc1cccc(C[C@H](N[*:1])C(=O)[*:2])c1; Ala(pyrimidin-5-yl) = N[C@@H](Cc1cncnc1)C(=O)O; NMe3Pal(6-Me) = CN[C@@H](Cc1ccc(C)nc1)C(=O)O; X3 = CN([C@@H](Cc1cncnc1)C(=O)[*:2])[*:1]; Phe(4-F) = N[C@@H](Cc1ccc(F)cc1)C(=O)O; 1Nal = N[C@@H](Cc1cccc2ccccc12)C(=O)O; NHCH2CH2SCH2CO = O=C(CSCCN[*:1])[*:2]; Ala(cPent) = N[C@@H](CC1CCCC1)C(=O)O; Phe(2-F) = N[C@@H](Cc1ccccc1F)C(=O)O; NMe3Pal = CN[C@@H](Cc1cccnc1)C(=O)O; X1 = O=C(C12CC(CN[*:1])(C1)C2)[*:2]; NMeF = CN[C@@H](Cc1ccccc1)C(=O)O; PhLac = O=C(O)[C@@H](O)Cc1ccccc1; 3Pal = N[C@@H](Cc1cccnc1)C(=O)O; d(αMeC) = C[C@@](N)(CS)C(=O)O; hLeu = CC(C)CC[C@H](N)C(=O)O; NMeA = CN[C@@H](C)C(=O)O; Nle = CCCC[C@H](N)C(=O)O; Nva = CCC[C@H](N)C(=O)O
target: KRAS-G12D protein (Homo sapiens, UniProt P01116, G12D); test: SOS-mediated nucleotide exchange assay (BODIPY-GDP / Tb-streptavidin TR-FRET); format: biochemical
Sequence (P01116 1-188 isoform P01116-2 G12D): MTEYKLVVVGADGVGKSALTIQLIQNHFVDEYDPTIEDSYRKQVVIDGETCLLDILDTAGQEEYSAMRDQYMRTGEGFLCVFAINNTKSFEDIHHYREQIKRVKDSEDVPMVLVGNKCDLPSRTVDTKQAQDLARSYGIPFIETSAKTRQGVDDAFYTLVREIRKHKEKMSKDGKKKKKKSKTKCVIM

**Q.** Which EC50 does the source give for CCC[C@@H]1NC(=O)[C@H](Cc2ccc(OC)cc2)NC(=O)[C@H](CC(C)C)NC(=O)[C@H](Cc2cccnc2)NC(=O)[C@H](CCCNC(=N)N)NC(=O)[C@H](Cc2ccc(F)cc2)NC(=O)CSCCNC(=O)[C@H](Cc2ccccc2)N(C)C1=O [compound 87, cyclo(Phe4F-R-3Pal-L-TyrOMe-Nva-NMeF-Cysteamine-ClAc)] (cyclo([3Pal]LY(Me)[Nva][NMeF][NHCH2CH2SCH2CO][Phe(4-F)]R)) here?
**A.** 1600 nM

**Q.** For CC(C)CC[C@@H]1NC(=O)[C@H](Cc2ccccc2F)NC(=O)[C@H](CC2CCCC2)NC(=O)[C@H](Cc2cncnc2)NC(=O)[C@H](C)N(C)C(=O)[C@H](Cc2ccccc2)OC(=O)C23CC(CNC(=O)[C@H](Cc4cncnc4)N(C)C1=O)(C2)C3 [compound 335, cyclo(FLac-NMeA-PyrimAla-cPeA-Phe2F-hL-NMeAlaPyrim-amBCP)] (cyclo([Ala(cPent)][Phe(2-F)][hLeu][X3][X1][PhLac][NMeA][Ala(pyrimidin-5-yl)])), which EC50 is on record?
**A.** 1 nM

**Q.** Which EC50 does the source give for CCCC[C@@H]1NC(=O)[C@H](Cc2cccnc2)NC(=O)[C@H](C)N(C)C(=O)[C@H](Cc2ccccc2)OC(=O)C23CC(CNC(=O)[C@H](Cc4ccc(C)nc4)N(C)C(=O)[C@H](CCCC)NC(=O)[C@H](Cc4ccccc4F)NC1=O)(C2)C3 [compound 402, cyclo(FLac-NMeA-3Pal-Nle-Phe2F-Nle-NMe3Pal4Me-amBCP)] (cyclo([3Pal][Nle][Phe(2-F)][Nle][NMe3Pal(6-Me)][X1][PhLac][NMeA])) here?
**A.** 18 nM

**Q.** With CCCCC[C@@H]1NC(=O)[C@H](Cc2ccc(OC)cc2)NC(=O)[C@H](CC2CCC2)NC(=O)[C@H](Cc2ccc(=O)[nH]c2)NC(=O)[C@H](CCCNC(=N)N)NC(=O)[C@H](Cc2ccccc2)NC(=O)CSC[C@@](C)(C(N)=O)NC(=O)[C@H](Cc2ccccc2)N(C)C1=O [compound 369, cyclo(F-R-4CO3Pal-cBuA-TyrOMe-Abp-NMeF-aMeCl-ClAc)] as the compound, how does the EC50 read?
**A.** 19.4 nM

**Q.** With CCCC[C@@H]1NC(=O)[C@H](Cc2cccnc2)NC(=O)[C@H](C)N(C)C(=O)[C@H](Cc2ccccc2)OC(=O)C23CC(CNC(=O)[C@H](Cc4cccnc4)N(C)C(=O)[C@H](CCCC)NC(=O)[C@H](Cc4ccccc4F)NC1=O)(C2)C3 [compound 244, cyclo(FLac-NMeA-3Pal-Nle-Phe2F-Nle-NMe3Pal-amBCP)] (cyclo([3Pal][Nle][Phe(2-F)][Nle][NMe3Pal][X1][PhLac][NMeA])) as the compound, how does the EC50 read?
**A.** 36 nM

**Q.** CCCC[C@@H]1NC(=O)[C@H](Cc2cncnc2)NC(=O)[C@H](CCCn2ccnc2)N(C)C(=O)[C@H](Cc2ccccc2)OC(=O)C23CC(CNC(=O)[C@H](Cc4cccnc4)N(C)C(=O)[C@H](CCCC)NC(=O)[C@H](Cc4ccccc4F)NC1=O)(C2)C3 [compound 240, cyclo(FLac-NMeNvalmid-PyrimAla-Nle-Phe2F-Nle-NMe3Pal-amBCP)] (cyclo([NMe3Pal][X1][PhLac][NMeNva(5-imidazol-1-yl)][Ala(pyrimidin-5-yl)][Nle][Phe(2-F)][Nle])) was tested. Which EC50 did it give?
**A.** 27.2 nM

**Q.** For CCCC[C@@H]1NC(=O)[C@H](Cc2ccc(NC(=N)N)cc2)NC(=O)[C@H](CCCNC(=N)N)NC(=O)[C@H](Cc2cccc3ccccc23)NC(=O)CSC[C@](C)(C(=O)O)NC(=O)[C@H](Cc2ccccc2)N(C)C(=O)[C@H](CCCC)NC(=O)[C@H](Cc2ccc(O)cc2)NC1=O [compound 143, cyclo(INal-R-Phe4Gn-Nlc-Y-Nle-NMeF-daMeC-ClAc)] ({CH2CO}-[1Nal]R[Phe(4-guanidino)][Nle]Y[Nle][NMeF][d(αMeC)]-OH; thioether N-8), which EC50 is on record?
**A.** 575 nM

**Q.** With CCCC[C@@H]1NC(=O)[C@H](CCCCN)NC(=O)[C@H](CCCNC(=N)N)NC(=O)[C@H](Cc2cccc3ccccc23)NC(=O)CSCCNC(=O)[C@H](Cc2ccccc2)N(C)C(=O)[C@H](CCCC)NC(=O)[C@H](Cc2cccc(CC(=O)O)c2)NC1=O [compound 196, cyclo(INal-R-K-Nle-Phe3AcOH-Nle-NMeF-Cysteamine-ClAc)] (cyclo([1Nal]RK[Nle][X49][Nle][NMeF][NHCH2CH2SCH2CO])) as the compound, how does the EC50 read?
**A.** 2650 nM

From patent US20260001914A1, “MACROCYCLIC PEPTIDES TARGETING KRAS” (Merck Sharp & Dohme LLC, priority 2022, published 2026)
